Experimental findings from patent US9732032B2, “3-aminocyclopentane carboxamide derivatives” (Merck Patent GmbH, priority 2012, dated 2017) are described below.

This assay has as its target T1, human recombinant full-length fatty acid synthase (FASN) (Homo sapiens, UniProt P49327).
T1 construct: human recombinant full-length fatty acid synthase; made in house; host or cells: SF9 cells
As to the kind of experiment: Biochemical activity testing of human fatty acid synthase FASN (NADPH fluorescence intensity assay). To be noted: NADPH fluorescence decrease (ex 340 nm / em 460 nm), 30 minutes at room temperature, read-out: IC50 FASN (enzyme assay). The source says:
aq (aqueous), h (hour), g (gram), L (liter), mg (milligram), MHz (Megahertz), (melting point), eq (equivalent), mL (milliliter), L (microliter), ACN (acetonitrile), AcOH (acetic acid), CDCl3 (deuterated chloroform), CD3OD (deuterated methanol), CH3CN (acetonitrile), c-hex (cyclohexane), DCC (dicyclohexyl carbodiimide), DCM (dichloromethane), DIC (diisopropyl carbodiimide), DIEA (diisopropylethyl-amine), DMF (dimethylformamide), DMSO (dimethylsulfoxide), DMSO-d6 (deuterated dimethylsulfoxide), EDC (1-(3-dimethyl-amino-propyl)-3-ethylcarbodiimide), ESI (Electro-spray ionization), EtOAc (ethyl acetate), Et2O (diethyl ether), EtOH (ethanol), HATU (dimethylamino-([1,2,3]triazolo[4,5-b]pyridin-3-yloxy)-methylene]-dimethylammonium hexafluorophosphate), HPLC (High Performance Liquid Chromatography), i-PrOH (2-propanol), K2CO3 (potassium carbonate), LC (Liquid Chromatography), MeOH (methanol), MgSO4 (magnesium sulfate), MS (mass spectrometry), MTBE (Methyl tert-butyl ether), NaHCO3 (sodium bicarbonate), NaBH4 (sodium borohydride), NMM (N-methyl morpholine), NMR (Nuclear Magnetic Resonance), PyBOP (benzotriazole-1-yl-oxy-trispyrrolidino-phosphonium hexafluorophosphate), RT (room temperature), Rt (retention time), SPE (solid phase extraction), TBTU (2-(1-H-benzotriazole-1-yl)-1,1,3,3-tetramethyluromium tetrafluoro borate), TEA (triethylamine), TFA (trifluoroacetic acid), THF (tetrahydrofuran), TLC (Thin Layer Chromatography), UV (Ultraviolet). Description of the In Vitro Assays Abbreviations: GST=Glutathione-S-transferase FRET=Fluorescence resonance energy transfer HTRF®=(homogenous time resolved fluorescence) HEPES=4-(2-hydroxyethyl)-1-piperazine ethanesulfonic acid buffer DTT=Dithiothreitol BSA=bovine serum albumin CHAPS=detergent; CHAPS=3[(3-cholamidopropyl)dimethylammonio]-1-propanesulfonate Biochemical Activity Testing of Human Fatty Acid Synthase FASN
Fatty acid synthase FASN is a multifunctional enzyme with seven catalytic activities thereby synthesising long chain fatty acids especially palmitoyl-CoA in the presence of co-factor NADPH starting from the substrates acetyl-CoA and malonyl-CoA. The reductive synthesis is realized by the oxidation of NADPH to NADP. Since NADPH has a high fluorescence intensity quantum yield compared to NADP with excitation at 340 nm and emission at 460 nm, the reaction can be monitored via the decrease in fluorescence intensity. The biochemical FASN activity testing was performed as 384 well two-time-point kinetic fluorescence intensity assay format in Greiner low volume medium binding 384-well black microtiter plates in a total assay volume of 8 μl and was used for high throughput screen. In each well 3 μl 40 nM human recombinant full-length fatty acid synthase (produced in-house in SF9 cells) were dispensed in the following assay buffer: 50 mM potassium phosphate buffer pH 7.0, 0.005% (w/v) BSA, 2 mM Glutathione, 0.02% Tween-20. Then 2 μl of 200 μM NADPH in assay buffer were added, followed by the addition of the test compounds in 10 dilution concentrations starting with 30 μM (final concentration) to get a final DMSO content of 1% (v/v). The mixture was incubated for at least 15 min at room temperature. After the pre-incubation the enzymatic reaction was started by the addition of 2 μl substrate solution (80 μM acetyl-CoA, 240 μM malonyl-CoA). A first fluorescence intensity measurement (time point one) was performed with an Envision multimode reader (Perkin Elmer LAS Germany GmbH) at excitation wavelength 340 nm (lamp mode) and emission wavelength 460 nm. The reaction was incubated for 30 minutes at room temperature. After this the fluorescence intensity was measured again in the Envision using the same parameters as described above (second time point measurement). The data were analysed by subtracting the first time point measurement value from the second time point measurement value (after the enzymatic reaction). The differences of the emission signals were determined. […]

Structures are written as SMILES.

T1 sequence (P49327 whole entry): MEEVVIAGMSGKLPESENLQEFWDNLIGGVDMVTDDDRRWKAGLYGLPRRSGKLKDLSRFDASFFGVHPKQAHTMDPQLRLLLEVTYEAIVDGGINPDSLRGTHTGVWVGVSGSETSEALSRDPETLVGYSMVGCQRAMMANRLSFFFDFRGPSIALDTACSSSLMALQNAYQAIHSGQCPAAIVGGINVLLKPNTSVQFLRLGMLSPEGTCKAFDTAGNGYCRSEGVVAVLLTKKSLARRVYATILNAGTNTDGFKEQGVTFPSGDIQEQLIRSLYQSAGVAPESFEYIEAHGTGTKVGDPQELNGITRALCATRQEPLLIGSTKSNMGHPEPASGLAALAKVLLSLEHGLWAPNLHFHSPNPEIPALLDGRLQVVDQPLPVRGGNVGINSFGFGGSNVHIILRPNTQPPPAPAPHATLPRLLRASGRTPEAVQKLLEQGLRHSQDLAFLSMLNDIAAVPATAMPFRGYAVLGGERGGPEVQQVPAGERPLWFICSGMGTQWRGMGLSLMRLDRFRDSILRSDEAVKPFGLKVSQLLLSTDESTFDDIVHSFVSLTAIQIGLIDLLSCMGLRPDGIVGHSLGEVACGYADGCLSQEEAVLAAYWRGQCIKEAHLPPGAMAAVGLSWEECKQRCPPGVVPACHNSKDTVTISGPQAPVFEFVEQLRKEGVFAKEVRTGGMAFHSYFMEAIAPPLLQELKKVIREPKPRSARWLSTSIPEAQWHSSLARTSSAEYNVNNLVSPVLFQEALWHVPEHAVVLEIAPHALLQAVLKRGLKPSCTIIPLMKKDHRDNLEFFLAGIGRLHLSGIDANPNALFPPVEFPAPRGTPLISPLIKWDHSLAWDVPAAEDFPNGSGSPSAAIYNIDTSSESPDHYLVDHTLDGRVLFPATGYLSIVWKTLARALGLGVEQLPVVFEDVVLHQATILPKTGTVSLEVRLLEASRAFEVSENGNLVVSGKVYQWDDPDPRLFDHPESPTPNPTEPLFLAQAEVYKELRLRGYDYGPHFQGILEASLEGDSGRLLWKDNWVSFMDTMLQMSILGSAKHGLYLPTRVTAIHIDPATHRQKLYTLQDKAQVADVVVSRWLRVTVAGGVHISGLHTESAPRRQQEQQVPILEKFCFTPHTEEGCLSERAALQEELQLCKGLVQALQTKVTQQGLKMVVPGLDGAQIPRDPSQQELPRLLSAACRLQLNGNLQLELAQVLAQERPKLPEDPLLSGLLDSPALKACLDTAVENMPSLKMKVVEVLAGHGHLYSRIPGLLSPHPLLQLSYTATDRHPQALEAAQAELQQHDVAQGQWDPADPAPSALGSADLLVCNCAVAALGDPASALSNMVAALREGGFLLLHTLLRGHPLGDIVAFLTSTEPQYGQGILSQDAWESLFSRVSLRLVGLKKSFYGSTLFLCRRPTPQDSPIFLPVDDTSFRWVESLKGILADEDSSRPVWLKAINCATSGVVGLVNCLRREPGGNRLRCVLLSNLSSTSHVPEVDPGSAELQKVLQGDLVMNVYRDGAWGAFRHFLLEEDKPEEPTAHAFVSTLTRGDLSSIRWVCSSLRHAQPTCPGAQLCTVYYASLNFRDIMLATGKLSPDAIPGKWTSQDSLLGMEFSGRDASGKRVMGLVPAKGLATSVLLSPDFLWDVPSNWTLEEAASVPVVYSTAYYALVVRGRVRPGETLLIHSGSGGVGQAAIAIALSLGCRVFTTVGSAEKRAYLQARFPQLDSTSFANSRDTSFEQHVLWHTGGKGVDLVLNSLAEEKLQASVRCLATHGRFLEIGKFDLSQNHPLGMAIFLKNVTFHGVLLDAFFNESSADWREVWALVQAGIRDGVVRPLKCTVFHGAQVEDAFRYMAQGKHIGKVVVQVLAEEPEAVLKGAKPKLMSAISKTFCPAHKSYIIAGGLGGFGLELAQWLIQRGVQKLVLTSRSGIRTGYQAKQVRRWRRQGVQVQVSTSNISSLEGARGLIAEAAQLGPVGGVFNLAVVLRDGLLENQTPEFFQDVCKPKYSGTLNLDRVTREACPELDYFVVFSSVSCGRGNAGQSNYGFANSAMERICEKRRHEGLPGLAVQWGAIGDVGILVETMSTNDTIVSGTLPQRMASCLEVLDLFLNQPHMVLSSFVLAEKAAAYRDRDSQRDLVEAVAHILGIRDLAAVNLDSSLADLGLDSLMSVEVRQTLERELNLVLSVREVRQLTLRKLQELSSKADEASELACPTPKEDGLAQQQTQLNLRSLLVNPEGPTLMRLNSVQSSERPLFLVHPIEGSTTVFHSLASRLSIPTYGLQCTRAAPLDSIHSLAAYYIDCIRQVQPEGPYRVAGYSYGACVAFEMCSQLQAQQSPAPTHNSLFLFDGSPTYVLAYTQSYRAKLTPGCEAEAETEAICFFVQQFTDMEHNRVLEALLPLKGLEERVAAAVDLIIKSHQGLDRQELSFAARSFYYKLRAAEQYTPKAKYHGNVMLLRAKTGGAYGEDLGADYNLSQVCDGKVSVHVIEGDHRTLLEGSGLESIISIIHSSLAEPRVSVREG

As to `CCNC(=O)[C@H]1CC[C@@H](N(C)C(=O)c2ccc(-c3ccccc3S(N)(=O)=O)cc2)C1` [Compound A61, 2′-sulfamoyl-biphenyl-4-carboxylic acid ((1R,3S)-3-ethylcarbamoyl-cyclopentyl)-methyl-amide], the half-inhibitory concentration (IC50) (as a rule, the concentration at which inhibition is half-maximal) was less than 300 nM. In the case of `CCNC(=O)[C@H]1CC[C@@H](N(C)C(=O)c2ccc(-c3ccc(Cl)cc3)cc2)C1` [Compound A62, 4′-chloro-biphenyl-4-carboxylic acid ((1R,3S)-3-ethylcarbamoyl-cyclopentyl)-methyl-amide], the IC50 is less than 300 nM. As to `CCNC(=O)[C@H]1CC[C@@H](N(C)C(=O)c2ccc(-c3ccc(F)cc3F)cc2)C1` [Compound A63, 2′,4′-difluoro-biphenyl-4-carboxylic acid ((1R,3S)-3-ethylcarbamoyl-cyclopentyl)-methyl-amide], the IC50 is less than 300 nM. Turning to `CCNC(=O)[C@H]1CC[C@@H](N(C)C(=O)c2ccc(-c3ccccc3C(F)(F)F)cc2)C1` [Compound A64, 2′-trifluoromethyl-biphenyl-4-carboxylic acid ((1R,3S)-3-ethylcarbamoyl-cyclopentyl)-methyl-amide], the half-inhibitory concentration (IC50) was less than 300 nM. Consider `CCNC(=O)[C@H]1CC[C@@H](N(C)C(=O)c2ccc(-c3ccccc3C)c(C)c2)C1` [Compound A65, 2,2′-dimethyl-biphenyl-4-carboxylic acid ((1R,3S)-3-ethylcarbamoyl-cyclopentyl)-methyl-amide], for which the IC50 is less than 300 nM.

Consider `CN(C(=O)c1ccc(-c2ccccc2)cc1)[C@@H]1CC[C@H](C(=O)NC2(C)CC2)C1` [Compound A67, biphenyl-4-carboxylic acid methyl-[(1R,3S)-3-(1-methyl-cyclopropylcarbamoyl)-cyclopentyl]-amide], for which the half-inhibitory concentration (IC50) is less than 300 nM. As to `CN(C(=O)c1ccc(-c2nc3ccccc3o2)cc1)[C@@H]1CC[C@H](C(=O)NC2(C)CC2)C1` [Compound A68, 4-benzoxazol-2-yl-N-methyl-N-[(1R,3S)-3-(1-methyl-cyclopropylcarbamoyl)-cyclopentyl]-benzamide], the IC50 was less than 300 nM.

On to `CCNC(=O)[C@H]1CC[C@@H](N(C)C(=O)c2ccc(C#Cc3ccc(OC)cc3)cc2)C1` [Compound A69, N-((1R,3S)-3-ethylcarbamoyl-cyclopentyl)-4-(4-methoxy-phenylethynyl)-N-methyl-benzamide], for which the IC50 is less than 300 nM. On to `CCNC(=O)[C@H]1CC[C@@H](N(C)C(=O)c2ccc(C#Cc3ccncc3)cc2)C1` [Compound A70, N-((1R,3S)-3-ethylcarbamoyl-cyclopentyl)-N-methyl-4-pyridin-4-ylethynyl-benzamide], for which the IC50 is less than 300 nM. To `CN(C(=O)c1ccc(-c2nc3ccccc3s2)cc1)[C@@H]1CC[C@H](C(=O)NC2(C)CC2)C1` [Compound A71, 4-benzothiazol-2-yl-N-methyl-N-[(1R,3S)-3-(1-methyl-cyclopropylcarbamoyl)-cyclopentyl]-benzamide] belongs less than 300 nM; to `CN(C(=O)c1ccc(C#Cc2ccc(F)cc2)cc1)[C@@H]1CC[C@H](C(=O)NC2(C)CC2)C1` [Compound A72, 4-(4-fluoro-phenylethynyl)-N-methyl-N-[(1R,3S)-3-(1-methyl-cyclopropylcarbamoyl)-cyclopentyl]-benzamide], less than 300 nM; to `CCCC1(NC(=O)[C@H]2CC[C@@H](N(C)C(=O)c3ccc(-c4nc5ccccc5o4)cc3)C2)CC1` [Compound A73, 4-benzoxazol-2-yl-N-methyl-N-[(1R,3S)-3-(1-propyl-cyclopropylcarbamoyl)-cyclopentyl]-benzamide], 300 to 3000 nM. The figure for `CC[C@H](C)NC(=O)[C@H]1CC[C@@H](N(C)C(=O)c2ccc(-c3nc4ccccc4o3)cc2)C1` [Compound A74, 4-(1,3-benzoxazol-2-yl)-N-methyl-N-[(1R,3S)-3-[[(1S)-1-methylpropyl]-carbamoyl]cyclopentyl]benzamide] is less than 300 nM.
